26 compounds from patent US11964973B2 (priority 2019, dated 2024) can be followed below.

Like-named read-outs stand apart in the source and are kept apart here.

In test [1] the test system is human venous whole blood, CD8 positive population (pERK). Put plainly: DGK human whole blood pERK assay. It counts as cell-based. As to the method: Assay 11: DGK Human Whole Blood pERK Assay
Human whole blood ERK phosphorylation assay was performed with human venous whole blood obtained from healthy donors (drawn with Heparin as anti-coagulant). […] Heparinized human whole blood was added to the compound plate at 9 μL per well and incubated for one hour at 37° C. in a humidified 95%, air/5% CO2 incubator. After one hour of compound incubation, 1 μL of human anti-CD3 antibody (in-house) in the presence of cross-linking antibody goat anti-mouse IgG (4 μg/mL) was added to the well at 1 μg/mL final concentration for stimulation of pathway and additionally incubated for 15 minutes at 37° C. […] Samples analyzed using the Intellicyt® iQue Screener PLUS. The pERK activation was quantitated by the percentage of pERK positive population within CD8 positive population.

Test [2] concerns Human venous whole blood (IFN-γ). Put plainly: Human whole blood IFN-γ assay. It counts as cell-based. As to the method:
Assay 10: Human Whole Blood IFN-γ Assay
Human venous whole blood (22.5 μL per well), obtained from healthy donors, was pre-treated with compounds for one hour at 37° C. in a humidified 95% air/5% CO2 incubator. The blood was stimulated with 2.5 μL anti-human CD3 and anti-CD28 mAb at a final concentration of 1 μg/mL each for 24 hours at 37° C. IFN-γ in the supernatants was measured using AlphLISA kit (Cat #AL217).

For test [3], the target named is human DGKζ (Homo sapiens (Human), UniProt Q13574). Briefly: biochemical. It counts as biochemical. Conditions: liposome (LIPGLO) assay.
Setting [4] is: Homo sapiens, CD8 positive, human whole blood pERK, read-out: DGK HWB.
[5] abbreviates: read-out: DGK HWB, human whole blood pERK.
The mark [6] stands for this setting: Homo sapiens, CD8 positive, read-out: DGK HWB, human whole blood pERK.
[7] abbreviates: human whole blood pERK, read-out: DGK HWB.
Setting [8] is: Homo sapiens, 24 h, human whole blood, anti-CD3 plus anti-CD28, 24 hours, read-out: INFg Whole Blood Normalized Agonist EC50.
Where [9] appears, read: Homo sapiens, human whole blood IFN-γ, read-out: INFg Whole Blood.
Where [10] appears, read: human whole blood, anti-CD3 plus anti-CD28, 24 hours, read-out: INFg Whole Blood Normalized Agonist EC50.
[11] abbreviates: human whole blood IFN-γ, read-out: INFg Whole Blood.

human DGKζ, sequence (Q13574 whole entry, looked up): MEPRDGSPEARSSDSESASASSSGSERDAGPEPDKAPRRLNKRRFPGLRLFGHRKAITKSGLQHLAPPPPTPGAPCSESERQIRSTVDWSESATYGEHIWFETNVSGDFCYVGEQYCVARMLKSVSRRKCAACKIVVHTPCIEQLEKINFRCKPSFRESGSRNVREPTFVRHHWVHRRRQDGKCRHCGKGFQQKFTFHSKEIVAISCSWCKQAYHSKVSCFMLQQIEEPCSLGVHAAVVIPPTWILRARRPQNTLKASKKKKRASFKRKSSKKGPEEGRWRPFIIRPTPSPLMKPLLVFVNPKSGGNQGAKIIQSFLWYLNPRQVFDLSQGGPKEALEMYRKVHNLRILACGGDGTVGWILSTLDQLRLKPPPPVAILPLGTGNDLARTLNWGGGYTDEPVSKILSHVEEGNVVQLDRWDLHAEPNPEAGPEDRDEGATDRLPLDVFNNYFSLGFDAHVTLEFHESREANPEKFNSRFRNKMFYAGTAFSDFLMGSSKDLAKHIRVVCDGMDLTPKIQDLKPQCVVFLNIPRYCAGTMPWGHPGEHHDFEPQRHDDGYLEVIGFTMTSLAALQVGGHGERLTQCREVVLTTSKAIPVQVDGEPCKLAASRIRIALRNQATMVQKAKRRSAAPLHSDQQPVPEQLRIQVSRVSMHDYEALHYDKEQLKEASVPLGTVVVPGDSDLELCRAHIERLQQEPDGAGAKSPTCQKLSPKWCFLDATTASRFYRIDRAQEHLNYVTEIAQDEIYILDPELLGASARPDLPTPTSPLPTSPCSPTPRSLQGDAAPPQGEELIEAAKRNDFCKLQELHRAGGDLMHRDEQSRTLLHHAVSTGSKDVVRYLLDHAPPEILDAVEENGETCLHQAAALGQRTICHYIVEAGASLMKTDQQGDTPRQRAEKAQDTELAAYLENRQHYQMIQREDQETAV

Take `CC[C@@H]1CN(c2cc(=O)n(C)c3ccc(C#N)nc23)[C@H](C)C[C@H]1Oc1cccc(C(F)(F)F)c1` [Example 310, 8-((2R,4R,5R)-5-ethyl-2-methyl-4-(3-(trifluoromethyl)phenoxy)piperidin-1-yl)-5-methyl-6-oxo-5,6-dihydro-1,5-naphthyridine-2-carbonitrile]: in test [1] (setting [4]), the EC50 was 9900 nM.
`CCO[C@H]1CN(c2cc(=O)n(C)c3ccc(C#N)nc23)CC[C@@H]1Oc1ccnc(C(F)(F)F)c1` [Example 360, 8-((3S,4S)-3-ethoxy-4-((2-(trifluoromethyl)pyridin-4-yl)oxy)piperidin-1-yl)-5-methyl-6-oxo-5,6-dihydro-1,5-naphthyridine-2-carbonitrile]: the EC50 in test [1] (setting [5]) came to 700 nM.
As for `CCO[C@H]1CN(c2cc(=O)n(C)c3ccc(C#N)nc23)CC[C@@H]1Oc1ccc(C(F)(F)F)cn1` (relative stereo) [Example 367, trans-8-(3-Ethoxy-4-((5-(trifluoromethyl)pyridin-2-yl)oxy)piperidin-1-yl)-5-methyl-6-oxo-5,6-dihydro-1,5-naphthyridine-2-carbonitrile], the EC50 in test [1] (setting [6]) was determined as 640 nM.
`CCO[C@H]1CN(c2cc(=O)n(C)c3ccc(C#N)nc23)CC[C@@H]1Oc1cccc(C(F)(F)F)n1` (relative stereo) [Example 363, trans-8-(3-Ethoxy-4-((6-(trifluoromethyl)pyridin-2-yl)oxy)piperidin-1-yl)-5-methyl-6-oxo-5,6-dihydro-1,5-naphthyridine-2-carbonitrile]: the EC50 in test [1] (setting [7]) stood at 1100 nM.
With `C[C@H]1CN(c2cc(=O)n(C)c3ccc(C#N)nc23)[C@@H](C)CC1N(C)Cc1ccc(F)cc1` (single isomer, unassigned) [Example 334], the EC50 in test [1] (setting [5]) amounted to 20000 nM.
`C[C@@H]1CN(c2cc(=O)n(C)c3ccc(C#N)nc23)[C@@H](C)CC1N(C)Cc1ccc(F)cc1` (single isomer, unassigned) [Example 331]: the EC50 in test [1] (setting [6]) stood at 11000 nM.
Take `CCO[C@H]1CN(c2cc(=O)n(C)c3ccc(C#N)nc23)CC[C@@H]1Oc1ccc(OC(C)C)cc1` [Example 347, 8-((3S,4S)-3-ethoxy-4-(4-isopropoxyphenoxy)piperidin-1-yl)-5-methyl-6-oxo-5,6-dihydro-1,5-naphthyridine-2-carbonitrile]: in test [1] (setting [4]), the EC50 came out at 350 nM.
Regarding `CCO[C@H]1CN(c2cc(=O)n(C)c3ccc(C#N)nc23)CC[C@@H]1Oc1ccc(C(F)(F)F)cc1` [Example 343, 8-((3S,4S)-3-ethoxy-4-(4-(trifluoromethyl)phenoxy)piperidin-1-yl)-5-methyl-6-oxo-5,6-dihydro-1,5-naphthyridine-2-carbonitrile], in test [1] (setting [7]), the EC50 is 320 nM.
Consider `CC[C@@H]1CN(c2cc(=O)n(C)c3ccc(C#N)nc23)CC[C@H]1Oc1ccc(OC(C)C)cc1` [Example 161, 8-((3R,4R)-3-ethyl-4-(4-isopropoxyphenoxy)piperidin-1-yl)-5-methyl-6-oxo-5,6-dihydro-1,5-naphthyridine-2-carbonitrile], for which, in test [2] (setting [8]), the EC50 was 2.4 µM. Besides, in test [3] (read-out: DGKζ LIPGLO IC50), the IC50 worked out at 540 nM.
As to `CC[C@@H]1CN(c2cc(=O)n(C)c3ccc(C#N)nc23)CC[C@@H]1Oc1ccc(OC(C)C)cn1` [Example 203, 8-((3R,4S)-3-ethyl-4-((5-isopropoxypyridin-2-yl)oxy)piperidin-1-yl)-5-methyl-6-oxo-5,6-dihydro-1,5-naphthyridine-2-carbonitrile], the IC50 in test [3] (Table A, read-out: DGKζ) came to 230 nM.
For the compound `CC[C@@H]1CN(c2cc(=O)n(C)c3ccc(C#N)nc23)CC[C@H]1Oc1ccc(OC(C)C)cn1` [Example 192, 8-((3R,4R)-3-ethyl-4-((5-isopropoxypyridin-2-yl)oxy)piperidin-1-yl)-5-methyl-6-oxo-5,6-dihydro-1,5-naphthyridine-2-carbonitrile], the EC50 in test [2] (setting [9]) turned out to be 0.29 µM. For the same compound, in test [3] (Table A, read-out: DGKζ), the IC50 is 420 nM.
As for `Cn1c(=O)nc(N2CC[C@@H](Oc3cccc(C(F)(F)F)c3)[C@H](O)C2)c2nc(C#N)ccc21` (single isomer, unassigned) [Example 273, (+/−)-trans-4-(3-hydroxy-4-(3-(trifluoromethyl)phenoxy)piperidin-1-yl)-1-methyl-2-oxo-1,2-dihydropyrido[3,2-d]pyrimidine-6-carbonitrile], the IC50 in test [3] (Table A, read-out: DGKζ) stood at 4700 nM.
As to `C[C@@H]1CN(c2cc(=O)n(C)c3ccc(C#N)nc23)CC[C@@H]1Oc1ccc(C2CC2)cn1` [Example 224, 8-((3R,4S)-4-((5-cyclopropylpyridin-2-yl)oxy)-3-methylpiperidin-1-yl)-5-methyl-6-oxo-5,6-dihydro-1,5-naphthyridine-2-carbonitrile], in test [2] (setting [9]), the EC50 is 5.8 µM.
On to `C[C@@H]1CN(c2cc(=O)n(C)c3ccc(C#N)nc23)CC[C@H]1Oc1ccc(OC(F)(F)F)cc1` (single isomer, unassigned) [Example 81, 6-cyano-1-methyl-4-(trans-3-methyl-4-(4-(trifluoromethoxy)phenoxy)piperidin-1-yl)-1,5-naphthyridin-2(1H)-one (rel)], for which, in test [2] (setting [10]), the EC50 was 2 µM.
Take `CC(C)c1ccc(O[C@H]2CCN(c3cc(=O)n(C)c4ccc(C#N)nc34)C[C@H]2C)nc1` [Example 205, 8-((3R,4S)-4-((5-isopropylpyridin-2-yl)oxy)-3-methylpiperidin-1-yl)-5-methyl-6-oxo-5,6-dihydro-1,5-naphthyridine-2-carbonitrile]: the EC50 in test [2] (setting [9]) was found to be 0.37 µM.
For the compound `CC[C@@H]1CN(c2cc(=O)n(C)c3ccc(C#N)nc23)CC[C@H]1Oc1ccc(C(C)(C)C)cc1` (racemic) [Example 152, 8-((3R,4R)-4-(4-(tert-butyl)phenoxy)-3-ethylpiperidin-1-yl)-5-methyl-6-oxo-5,6-dihydro-1,5-naphthyridine-2-carbonitrile], in test [2] (setting [8]), the EC50 stood at 1.5 µM.
With `CC[C@@H]1CN(c2cc(=O)n(C)c3ccc(C#N)nc23)CC[C@H]1Oc1ccc(C(C)(C)C)cc1` (single isomer, unassigned) [Example 153], the EC50 in test [2] (setting [10]) is 1.7 µM.
Turning to `CO[C@@H]1CN(c2cc(=O)n(C)c3ccc(C#N)nc23)CC[C@H]1Oc1cccc(C(F)(F)F)c1` (racemic) [Example 262, (±)-trans-8-(3-methoxy-4-(3-(trifluoromethyl)phenoxy)piperidin-1-yl)-5-methyl-6-oxo-5,6-dihydro-1,5-naphthyridine-2-carbonitrile], in test [2] (setting [11]), the EC50 came out at 12 µM.
For `C[C@@H]1CN(c2cc(=O)n(C)c3ccc(C#N)nc23)CC[C@@H]1Oc1ncc(C2CC2)cn1` [Example 223, 8-((3R,4S)-4-((5-cyclopropylpyrimidin-2-yl)oxy)-3-methylpiperidin-1-yl)-5-methyl-6-oxo-5,6-dihydro-1,5-naphthyridine-2-carbonitrile], the EC50 in test [2] (setting [9]) turned out to be 17 µM.
In the case of `CC[C@@H]1CN(c2cc(=O)n(C)c3ccc(C#N)nc23)CC[C@H]1Oc1cccc(C2CC2)c1` [Example 156, 8-((3R,4R)-4-(3-cyclopropylphenoxy)-3-ethylpiperidin-1-yl)-5-methyl-6-oxo-5,6-dihydro-1,5-naphthyridine-2-carbonitrile], in test [2] (setting [8]), the EC50 stood at 1.8 µM.
`CO[C@H]1CN(c2cc(=O)n(C)c3ccc(C#N)nc23)CC[C@@H]1Oc1ccc(OC(C)C)cn1` (racemic) [Example 270, (±)-trans-8-(4-((5-isopropoxypyridin-2-yl)oxy)-3-methoxypiperidin-1-yl)-5-methyl-6-oxo-5,6-dihydro-1,5-naphthyridine-2-carbonitrile]: in test [2] (setting [11]), the EC50 was found to be 5.4 µM.
Regarding `C[C@@H]1CN(c2cc(=O)n(C)c3ccc(C#N)nc23)CC[C@@H]1Oc1ncc(C(F)(F)F)cn1` [Example 222, 5-methyl-8-((3R,4S)-3-methyl-4-((5-(trifluoromethyl)pyrimidin-2-yl)oxy)piperidin-1-yl)-6-oxo-5,6-dihydro-1,5-naphthyridine-2-carbonitrile], the EC50 in test [2] (setting [9]) was 3.9 µM.
On to `C[C@@H]1CN(c2cc(=O)n(C)c3ccc(C#N)nc23)CC[C@H]1Oc1c(F)cccc1F` (single isomer, unassigned) [Example 126], for which, in test [2] (setting [8]), the EC50 was determined as 20 µM.
For the compound `CC[C@@H]1CN(c2cc(=O)n(C)c3ccc(C#N)nc23)CC[C@@H]1Oc1ccc(OC(C)C)cn1` [Example 204, 8-((3R,4S)-3-ethyl-4-((5-isopropoxypyridin-2-yl)oxy)piperidin-1-yl)-5-methyl-6-oxo-5,6-dihydro-1,5-naphthyridine-2-carbonitrile], the IC50 in test [3] (Table A, read-out: DGKζ) amounted to 330 nM.
As for `C[C@@H]1CN(c2c(C#N)c(=O)n(C)c3ccc(C#N)nc23)CC[C@@H]1Oc1ccc(C(F)(F)F)cc1` [Example 189, 5-methyl-8-((3R,4S)-3-methyl-4-(4-(trifluoromethyl)phenoxy)piperidin-1-yl)-6-oxo-5,6-dihydro-1,5-naphthyridine-2,7-dicarbonitrile], the EC50 in test [2] (setting [9]) turned out to be 20 µM.
Regarding `CC[C@@H]1CN(c2cc(=O)n(C)c3ccc(C#N)nc23)CC[C@H]1Oc1ccc(C(C)C)cc1` (single isomer, unassigned) [Example 145], in test [2] (setting [10]), the EC50 came out at 7.8 µM.
